Structures can show the parent of a compound that is named as a salt.
Experiments:
Assay in all cases: In vitro MMP inhibition, IC50 determination (fluorogenic substrate I)
Type in all cases: biochemical
Human recombinant MMP-1 = molecular target: T1, Human recombinant MMP-1 (Homo sapiens, UniProt P03956)
T1 construct: made in house; host or cells: MMP-1-transfected HT-1080 cells (spent media)
T1 sequence (P03956 100-469): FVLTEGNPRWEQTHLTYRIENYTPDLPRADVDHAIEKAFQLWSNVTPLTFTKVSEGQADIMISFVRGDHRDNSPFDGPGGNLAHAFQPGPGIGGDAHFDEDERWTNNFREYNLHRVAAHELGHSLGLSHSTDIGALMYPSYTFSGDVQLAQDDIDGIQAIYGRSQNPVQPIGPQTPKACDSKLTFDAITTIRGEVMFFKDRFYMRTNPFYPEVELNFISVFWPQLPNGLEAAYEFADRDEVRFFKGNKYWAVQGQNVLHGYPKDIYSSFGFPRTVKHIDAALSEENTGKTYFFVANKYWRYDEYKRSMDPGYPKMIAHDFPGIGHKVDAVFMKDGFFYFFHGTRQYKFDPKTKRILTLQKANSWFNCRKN
Procedure: (§1) Several hydroxamates and salts thereof were analyzed in in vitro assays to determine their ability to inhibit the MMP cleavage of peptide substrates. Inhibition (Ki) and IC50 constants were calculated from the assayed hydroxamate-MMP interactions.
(§2) Human recombinant MMP-1, MMP-2, MMP-9, MMP-13, and MMP-14 were used in this assay. All enzymes were prepared in Assignee's laboratories following usual laboratory procedures. Protocols for the preparation and use of these enzymes are available in the scientific literature. See, e.g., Enzyme Nomenclature (Academic Press, San Diego, Calif., 1992) (and the citations therein). See also, Frije et al., J. Biol. Chem., 26(24), 16766-73 (1994).
The MMP-1 proenzyme was purified from the spent media of MMP-1-transfected HT-1080 cells provided by Dr. Harold Welgus of Washington University (St. Louis, Mo.). The protein was purified on a zinc chelating column.
(§3) All MMPs were activated using 4-aminophenylmercuric acetate (“APMA”, Sigma Chemical, St. Louis, Mo.) or trypsin. MMP-9 also was activated using human recombinant MMP-3 (purified in Assignee's laboratory following standard cloning and purification techniques).
(§4) Two fluorogenic, methoxycoumarin-containing polypeptide substrates were used in the MMP inhibition assays:
(§5) MCA-ProLeuGlyLeuDpaAlaArgNH2 (I)
(§6) Here, “Dpa” is 3-(2,4-dinitrophenyl)-L-2,3-diaminopropionyl group, and “MCA” is 7-methoxycoumarin-4-yl acetyl. Substrate (I) was purchased from Baychem (Redwood City, Calif.), and substrate II was prepared Assignee's laboratory. Substrate I was used in the IC50 determination assays, while substrate II was used in the Ki determination assays. In the absence of MMP inhibitory activity, either substrate is cleaved at the Gly-Leu peptide bond. This cleavage separates the highly fluorogenic peptide from the 2,4-dinitrophenyl quencher, thus resulting in increase of fluorescent intensity.
(§7) The stock solutions of the assayed hydroxamates (or salts thereof) were prepared in 1% dimethyl sulfoxide (DMSO). These stock solutions were diluted in Buffer A (100 mM Tris-HCl, 100 mM NaCl, 10 mM CaCl2, 0.05% polyoxyethylene 23 lauryl ether, pH 7.5) to obtain solutions with different hydroxamate concentrations, i.e., assay solutions with different concentrations of the assayed MMP inhibitory compound. The experiment controls contained the same amount of Buffer A/DMSO as the assayed sample, but contained no hydroxamate (or salt thereof).
(§8) The assays from which the IC50 determinations were made were performed as follows. The MMPs were activated with either trypsin or APMA (4-aminophenylmercuric acetate, Sigma Chemical, St. Louis, Mo.). The assayed hydroxamate samples were, incubated in Microfluorrm White Plates (Dynatech, Chantilly, VA) and analyzed on a Perkin Elmer L550 plate reader (Norwalk, Conn.). The excitation wavelength was 328 nm, and the emission wavelength—415 nm. All samples (assayed hydroxamates and controls) were incubated in separate plates at room temperature in the presence of 4 μM of MMP substrate (I). As stated in the previous paragraph, samples containing varying concentrations of the same assayed hydroxamate were prepared. Inhibition was measured as a reduction in fluorescent intensity as a function of MMP inhibitor concentration.

Human recombinant MMP-2 = molecular target: T2, Human recombinant MMP-2 (Homo sapiens, UniProt P08253)
T2 construct: made in house; host or cells: MMP-2-transfected p2AHT2 cells
T2 sequence (P08253 110-660): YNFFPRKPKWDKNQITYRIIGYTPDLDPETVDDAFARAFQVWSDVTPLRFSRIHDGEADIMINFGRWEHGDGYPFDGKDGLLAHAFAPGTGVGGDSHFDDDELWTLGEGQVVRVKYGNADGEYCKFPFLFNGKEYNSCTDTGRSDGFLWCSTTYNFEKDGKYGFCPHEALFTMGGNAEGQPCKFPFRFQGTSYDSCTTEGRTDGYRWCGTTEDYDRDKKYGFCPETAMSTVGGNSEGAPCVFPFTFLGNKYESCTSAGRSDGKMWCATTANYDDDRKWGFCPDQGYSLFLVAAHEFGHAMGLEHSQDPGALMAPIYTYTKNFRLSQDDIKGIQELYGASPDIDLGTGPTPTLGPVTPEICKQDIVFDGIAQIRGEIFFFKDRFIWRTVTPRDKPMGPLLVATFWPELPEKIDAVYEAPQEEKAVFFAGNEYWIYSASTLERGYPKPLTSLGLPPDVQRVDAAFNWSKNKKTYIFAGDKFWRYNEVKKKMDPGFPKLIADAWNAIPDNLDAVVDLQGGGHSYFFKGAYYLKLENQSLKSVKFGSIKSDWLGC
Procedure, shortened: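 APMA- or trypsin-activated recombinant MMP-2 was incubated at room temperature with serial inhibitor dilutions in Tris buffer pH 7.5 (100 mM NaCl, 10 mM CaCl2, 0.05% Brij), with DMSO from 1% stocks, and 4 μM substrate I. Cleavage was read by fluorescence at 328/415 nm; IC50 was taken from the loss of fluorescence versus inhibitor concentration.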

Human recombinant MMP-14 = molecular target: T3, Human recombinant MMP-14 (Homo sapiens, UniProt P50281)
T3 construct: The catalytic domain enzyme was expressed in E. coli inclusion bodies, solubilized in urea; made in house
Procedure: as §1, §2
The MMP-14 full length cDNA was provided by Dr. Gregory Goldberg of Washington University (St. Louis, Mo.). The catalytic domain enzyme was expressed in E. coli inclusion bodies, solubilized in urea, purified on a preparative […] reverse phase HPLC column, and then refolded in the presence of zinc acetate and purified for use.
as §3, §4, §5, §6, §7, §8

Human recombinant MMP-9 = molecular target: T4, Human recombinant MMP-9 (Homo sapiens, UniProt P14780)
T4 construct: made in house; host or cells: MMP-9-transfected HT1080 cells (spent media)
T4 sequence (P14780 107-707 limits assumed): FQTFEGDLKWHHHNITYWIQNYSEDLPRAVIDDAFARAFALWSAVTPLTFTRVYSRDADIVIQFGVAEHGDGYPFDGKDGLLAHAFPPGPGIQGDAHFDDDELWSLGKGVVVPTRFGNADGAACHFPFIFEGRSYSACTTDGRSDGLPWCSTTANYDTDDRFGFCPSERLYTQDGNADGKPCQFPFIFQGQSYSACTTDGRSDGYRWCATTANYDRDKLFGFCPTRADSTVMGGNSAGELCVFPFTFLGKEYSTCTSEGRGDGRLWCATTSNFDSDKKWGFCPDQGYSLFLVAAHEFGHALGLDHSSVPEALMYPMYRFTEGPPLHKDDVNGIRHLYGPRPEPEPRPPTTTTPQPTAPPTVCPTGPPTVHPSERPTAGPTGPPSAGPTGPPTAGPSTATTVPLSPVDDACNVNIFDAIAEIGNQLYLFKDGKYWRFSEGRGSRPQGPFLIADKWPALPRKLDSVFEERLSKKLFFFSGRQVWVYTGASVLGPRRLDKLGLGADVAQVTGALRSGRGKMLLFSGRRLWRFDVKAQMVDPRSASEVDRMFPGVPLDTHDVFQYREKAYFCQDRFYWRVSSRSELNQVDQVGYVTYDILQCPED
Procedure: as §1, §2
The MMP-9 proenzyme was purified by gelatin Sepharose chromatography from spent media of MMP-9-transfected HT1080 cells provided by Dr. Howard Welgus of Washington University (St. Louis, Mo.).
as §3, §4, §5, §6, §7, §8

Human recombinant MMP-13 = molecular target: T5, Human recombinant MMP-13 (Homo sapiens, UniProt P45452)
T5 construct: made in house; host or cells: baculovirus / insect cells
Procedure, shortened: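 Fluorescence at 415 nm (excitation 328 nm) reports Gly-Leu cleavage of 4 μM quenched methoxycoumarin peptide substrate I. Human recombinant MMP-13, activated by trypsin or APMA, was incubated at room temperature with varied inhibitor concentrations in pH 7.5 Tris/NaCl/CaCl2 buffer; IC50 derived from reduced fluorescence.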

[1] = value outside parentheses (Ki in parenthesis)
[2] = substrate (I) 4 μM, room temperature, values not in parenthesis

CCCc1ccc(-c2nc(CCCOc3ccc(S(=O)(=O)C4(C(=O)NO)CCN(CCOC)CC4)cc3)oc2C)cc1 [Example 206]
IC50 (Human recombinant MMP-1; value outside parenthesis): > 10000 nM | IC50 (Human recombinant MMP-2; value outside parenthesis): 92.6 nM | IC50 (Human recombinant MMP-14; value outside parenthesis): 3110 nM | IC50 (Human recombinant MMP-9; value outside parenthesis): 59.4 nM | IC50 (Human recombinant MMP-13; value outside parenthesis): 15.8 nM

O=C(CCCCOc1ccc(S(=O)(=O)C2(C(=O)NO)CCOCC2)cc1)c1cccc2ccccc12 [Example 342]
IC50 (Human recombinant MMP-1; [1]): > 10000 nM | IC50 (Human recombinant MMP-2; [1]): 41.2 nM | IC50 (Human recombinant MMP-14; [1]): > 10000 nM | IC50 (Human recombinant MMP-9; [1]): 2170 nM | IC50 (Human recombinant MMP-13; [1]): 2 nM

COC(=O)CCCOc1ccc(S(=O)(=O)C2(C(=O)NO)CCOCC2)cc1 [Example 274]
IC50 (Human recombinant MMP-1; value outside parenthesis): 9860 nM | IC50 (Human recombinant MMP-2; value outside parenthesis): 15.4 nM | IC50 (Human recombinant MMP-14; value outside parenthesis): > 10000 nM | IC50 (Human recombinant MMP-9; value outside parenthesis): 33.6 nM | IC50 (Human recombinant MMP-13; value outside parenthesis): 4.1 nM

O=C(NO)C1(S(=O)(=O)c2ccc(OCCCc3nnc(Cl)o3)cc2)CCOCC1 [Example 244]
IC50 (Human recombinant MMP-1; value outside parenthesis): 3250 nM | IC50 (Human recombinant MMP-2; value outside parenthesis): 18.8 nM | IC50 (Human recombinant MMP-14; value outside parenthesis): > 10000 nM | IC50 (Human recombinant MMP-9; value outside parenthesis): 108 nM | IC50 (Human recombinant MMP-13; value outside parenthesis): 0.7 nM

Cc1ccc(/C(C#N)=C/CCCOc2ccc(S(=O)(=O)C3(C(=O)NO)CCN(C4CC4)CC3)cc2)cc1C [Example 201]
IC50 (Human recombinant MMP-1; value outside parenthesis): > 10000 nM | IC50 (Human recombinant MMP-2; value outside parenthesis): 128 nM | IC50 (Human recombinant MMP-14; value outside parenthesis): > 10000 nM | IC50 (Human recombinant MMP-9; value outside parenthesis): 4510 nM | IC50 (Human recombinant MMP-13; value outside parenthesis): 0.7 nM

CC(CCc1ccccc1)Oc1ccc(S(=O)(=O)C2(C(=O)NO)CCOCC2)cc1 (stereo not shown) [Example 467]
IC50 (Human recombinant MMP-1; [1]): > 10000 nM | IC50 (Human recombinant MMP-2; [1]): 940 nM | IC50 (Human recombinant MMP-14; [1]): > 10000 nM | IC50 (Human recombinant MMP-9; [1]): 450 nM | IC50 (Human recombinant MMP-13; [1]): 120 nM

COCCN1CCC(C(=O)NO)(S(=O)(=O)c2ccc(OCCCSc3nc4ccccc4o3)cc2)CC1 [Example 43, 4-([4-[3-(1,3-benzoxazol-2-ylthio)propoxy]phenyl]sulfonyl)-N-hydroxy-1-(2-methoxyethyl)piperidine-4-carboxamide Hydrochloride]
IC50 (Human recombinant MMP-1; [2]): > 10000 nM | IC50 (Human recombinant MMP-2; [2]): 4.8 nM | IC50 (Human recombinant MMP-14; [2]): 2080 nM | IC50 (Human recombinant MMP-9; [2]): 1 nM | IC50 (Human recombinant MMP-13; [2]): 1 nM

O=C(CCCOc1ccc(S(=O)(=O)C2(C(=O)NO)CCOCC2)cc1)N1CC[C@@H](c2ccccc2)[C@@H](O)C1 [Example 652]
IC50 (Human recombinant MMP-1; value outside parentheses): 3670 nM | IC50 (Human recombinant MMP-2; value outside parentheses): 76.6 nM | IC50 (Human recombinant MMP-14; value outside parentheses): > 10000 nM | IC50 (Human recombinant MMP-9; value outside parentheses): 224 nM | IC50 (Human recombinant MMP-13; value outside parentheses): 0.95 nM

COc1ccc(C(=O)CCCOc2ccc(S(=O)(=O)C3(C(=O)NO)CCOCC3)cc2)cc1 [Example 491]
IC50 (Human recombinant MMP-1; value outside parentheses): 7310 nM | IC50 (Human recombinant MMP-2; value outside parentheses): 6.8 nM | IC50 (Human recombinant MMP-14; value outside parentheses): 981 nM | IC50 (Human recombinant MMP-9; value outside parentheses): 94.2 nM | IC50 (Human recombinant MMP-13; value outside parentheses): 0.8 nM

COc1ccc(NC(=O)NCCOc2ccc(S(=O)(=O)C3(C(=O)NO)CCOCC3)cc2)cc1 [Example 418]
IC50 (Human recombinant MMP-1; [1]): > 10000 nM | IC50 (Human recombinant MMP-2; [1]): 1500 nM | IC50 (Human recombinant MMP-14; [1]): > 10000 nM | IC50 (Human recombinant MMP-9; [1]): > 10000 nM | IC50 (Human recombinant MMP-13; [1]): 64 nM

COc1ccc(-c2nnc(CCCCOc3ccc(S(=O)(=O)C4(C(=O)NO)CCOCC4)cc3)o2)cc1 [Example 346]
IC50 (Human recombinant MMP-1; [1]): > 10000 nM | IC50 (Human recombinant MMP-2; [1]): 2.6 nM | IC50 (Human recombinant MMP-14; [1]): > 10000 nM | IC50 (Human recombinant MMP-9; [1]): 2010 nM | IC50 (Human recombinant MMP-13; [1]): 0.9 nM

— US20040024024A1, “Aromatic sulfone hydroxamates and their use as protease inhibitors” (priority 2001, published 2004)
